Assays:
[1] = system: human foreskin keratinocytes (HFK); assay: Differentiation of keratinocytes at high CaCl2 in KSFM+A+Y (ZO-1 staining, TEER, H&E); format: cell-based
Method: Specifically, late passage human foreskin keratinocytes (HFK) cultured in KSFM supplemented with 1 μM A83-01 and 5 μM Y-27632 (KSFM+A+Y) at low CaCl2 (90 μM) were allowed to reach confluence. The cells remained in the KSFM+A+Y conditions and the CaCl2 concentration was raised to 1.5 mM to induce differentiation.
Keratinocytes established increasing transmembrane electric resistance (TEER) over time in air-liquid-interface differentiation, in the presence of high concentration (1.5 mM) of CaCl2 in KSFM plus A 83-01 and Y-27632. Specifically, human foreskin keratinocytes (HFK) previously cultured in KSFM supplemented with 1 μM A83-01 and 5 μM Y-27632 (KSFM+A+Y) at low CaCl2 (90 μM) were plated on a porous membrane support ([…], Corning, 354474) and maintained for 14 days. The cells were covered by culture medium (KSFM+A+Y and 1.5 mM of CaCl2) for the first day (submerged phase, grayed box in FIG. 34) and exposed to air for the remaining days.
Keratinocytes formed an epidermal-like structure over time in air-liquid-interface differentiation, in the presence of high concentration (1.5 mM) of CaCl2 in KSFM plus A 83-01 and Y-27632. Specifically, human foreskin keratinocytes (HFK) previously cultured in KSFM supplemented with 1 μM A83-01 and 5 μM Y-27632 (KSFM+A+Y) at low CaCl2 (90 μM) were plated on a porous membrane support ([…], Corning, 354474) and maintained for 14 days. […]

[2] = system: bronchial epithelial cells; assay: Effect of calcium content on bronchial epithelial cells in KSFM plus A83-01 and Y-27632 (morphology, TEER); format: cell-based, human
Method: Effects of culture media calcium content on cell behavior were assessed for epithelial cells cultured in KSFM plus A83-01 and Y-27632. Human bronchial epithelial cells were grown KSFM (with 90 μM CaCl2) plus A83-01 and Y-27632. These cells dispersed throughout the culture vessel (FIG. 28, left panel), and few cells formed intercellular connections, even when they were in close proximity to each other. […] Cells in the center of the patches tended to pile up, and boundaries between individual cells generally were not discernable. In certain instances, abnormal elongations formed between clusters.
In a further investigation, effects of culture media calcium content on intercellular junctions was assessed for bronchial epithelial cells cultured in KSFM plus A83-01 and Y-27632. Intercellular junctions were assessed according to paracellular flow of ions as measured by trans-epithelium electric resistance (TEER). […] Bronchial epithelial cells were plated on porous membrane support ([…], Corning, 354474) and maintained for 7 days when the membrane was covered with culture medium (submerged phase, grayed box in FIG. 29, top panel). On day 8, the medium was removed from the apical side of the membrane, and the cells were exposed to air to induce further differentiation. […]

With `[Ca+2].[Cl-].[Cl-]` [CaCl2] the “epidermal-like structure formation (H&E)” value ([1]; 1.5 mM CaCl2 in KSFM+A+Y, air-liquid-interface, day 14) was “differentiated into multi-layer structures”, the “tight junction formation (ZO-1 staining)” value ([1]; CaCl2 raised to 1.5 mM in KSFM+A+Y) was “Tight junction formation was observed” and the “cell behavior (morphology)” value ([2]; 1 mM CaCl2 in KSFM plus A83-01 and Y-27632) was “aggregate into tight clusters”. The “trans-epithelium electric resistance (TEER)” value ([2]; high concentration (1 mM) in KSFM plus A 83-01 and Y-27632) was “increasing TEER”.
